The target of series [1] is Tyrosine-protein kinase JAK1 (Homo sapiens, UniProt P23458). The series is described as follows: Inhibition of GST-tagged JAK1 (unknown origin) after 3 hrs by Caliper assay.
A short description of series [2]: Permeability from apical side to basolateral side in human Caco2 cells. The format is ADME, cell-based. The note with it: Caco-2, read-out: permeability.
Series [3] has as its target Non-receptor tyrosine-protein kinase TYK2 (Homo sapiens, UniProt P29597). The series is described as follows: Inhibition of His-tagged TYK2 (unknown origin) after 3 hrs by Caliper assay.
Series [4] has as its target Tyrosine-protein kinase JAK2 (Homo sapiens, UniProt O60674). The experiment in a line: Inhibition of GST-tagged JAK2 (unknown origin) after 3 hrs by Caliper assay.
The nature of series [5]: Cmax in mouse at 10 mg/kg, po. Format: ADME, organism-based. On the set-up: dose 10 mg/kg, route oral. The note with it: in vivo.
Series [6] concerns the target T1, Tyrosine-protein kinase JAK3 (Homo sapiens, UniProt P52333).
T1 sequence (P52333 whole entry): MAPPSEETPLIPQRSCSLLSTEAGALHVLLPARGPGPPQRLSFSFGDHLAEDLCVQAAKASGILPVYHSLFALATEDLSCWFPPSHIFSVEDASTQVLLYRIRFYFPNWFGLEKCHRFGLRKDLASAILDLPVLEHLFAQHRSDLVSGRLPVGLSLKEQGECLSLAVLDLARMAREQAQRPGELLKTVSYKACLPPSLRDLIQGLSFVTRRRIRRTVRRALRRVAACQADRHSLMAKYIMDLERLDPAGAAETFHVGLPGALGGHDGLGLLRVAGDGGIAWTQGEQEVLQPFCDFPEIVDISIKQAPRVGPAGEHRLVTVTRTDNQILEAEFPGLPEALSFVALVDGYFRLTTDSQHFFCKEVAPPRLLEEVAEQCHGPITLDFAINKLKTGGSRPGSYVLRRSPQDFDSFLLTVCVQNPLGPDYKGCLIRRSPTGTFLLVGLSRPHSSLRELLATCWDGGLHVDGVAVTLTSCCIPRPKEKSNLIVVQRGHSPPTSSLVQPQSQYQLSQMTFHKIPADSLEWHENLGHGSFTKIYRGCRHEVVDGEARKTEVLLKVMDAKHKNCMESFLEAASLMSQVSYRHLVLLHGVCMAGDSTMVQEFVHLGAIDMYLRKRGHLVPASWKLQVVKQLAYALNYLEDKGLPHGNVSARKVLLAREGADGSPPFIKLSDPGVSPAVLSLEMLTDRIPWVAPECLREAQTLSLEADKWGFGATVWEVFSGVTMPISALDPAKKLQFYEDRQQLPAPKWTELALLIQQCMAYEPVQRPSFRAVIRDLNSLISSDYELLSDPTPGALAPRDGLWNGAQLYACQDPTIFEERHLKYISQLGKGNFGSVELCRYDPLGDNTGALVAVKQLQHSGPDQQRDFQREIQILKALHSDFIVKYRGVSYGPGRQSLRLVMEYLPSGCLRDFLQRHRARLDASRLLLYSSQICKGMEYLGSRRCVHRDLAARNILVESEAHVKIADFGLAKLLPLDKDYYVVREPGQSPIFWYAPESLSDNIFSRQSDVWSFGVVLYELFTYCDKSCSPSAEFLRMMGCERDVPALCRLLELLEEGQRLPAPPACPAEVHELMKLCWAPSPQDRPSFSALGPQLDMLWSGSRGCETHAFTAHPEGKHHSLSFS
The experiment in a line: Inhibition of JAK3 (unknown origin) using CSKtide as substrate after 30 mins in presence of [gamma33P]ATP by liquid scintillation counting method.

Series [7] in a line: Protein binding in mouse plasma at 10 mg/kg, po. The conditions noted are these: read-out: PPB (converted). Format: ADME, organism-based.
For series [8], the target named is JAK3/JAK1 (Homo sapiens, UniProt P23458+P52333). The series is described as follows: Inhibition of JAK1/JAK3 in human whole blood assessed as reduction in IL-2 induced IFN-gamma production after 18 hrs by ELISA. Format: protein-complex assay.
Sequence of JAK3/JAK1 (P23458 whole entry, one chain of several): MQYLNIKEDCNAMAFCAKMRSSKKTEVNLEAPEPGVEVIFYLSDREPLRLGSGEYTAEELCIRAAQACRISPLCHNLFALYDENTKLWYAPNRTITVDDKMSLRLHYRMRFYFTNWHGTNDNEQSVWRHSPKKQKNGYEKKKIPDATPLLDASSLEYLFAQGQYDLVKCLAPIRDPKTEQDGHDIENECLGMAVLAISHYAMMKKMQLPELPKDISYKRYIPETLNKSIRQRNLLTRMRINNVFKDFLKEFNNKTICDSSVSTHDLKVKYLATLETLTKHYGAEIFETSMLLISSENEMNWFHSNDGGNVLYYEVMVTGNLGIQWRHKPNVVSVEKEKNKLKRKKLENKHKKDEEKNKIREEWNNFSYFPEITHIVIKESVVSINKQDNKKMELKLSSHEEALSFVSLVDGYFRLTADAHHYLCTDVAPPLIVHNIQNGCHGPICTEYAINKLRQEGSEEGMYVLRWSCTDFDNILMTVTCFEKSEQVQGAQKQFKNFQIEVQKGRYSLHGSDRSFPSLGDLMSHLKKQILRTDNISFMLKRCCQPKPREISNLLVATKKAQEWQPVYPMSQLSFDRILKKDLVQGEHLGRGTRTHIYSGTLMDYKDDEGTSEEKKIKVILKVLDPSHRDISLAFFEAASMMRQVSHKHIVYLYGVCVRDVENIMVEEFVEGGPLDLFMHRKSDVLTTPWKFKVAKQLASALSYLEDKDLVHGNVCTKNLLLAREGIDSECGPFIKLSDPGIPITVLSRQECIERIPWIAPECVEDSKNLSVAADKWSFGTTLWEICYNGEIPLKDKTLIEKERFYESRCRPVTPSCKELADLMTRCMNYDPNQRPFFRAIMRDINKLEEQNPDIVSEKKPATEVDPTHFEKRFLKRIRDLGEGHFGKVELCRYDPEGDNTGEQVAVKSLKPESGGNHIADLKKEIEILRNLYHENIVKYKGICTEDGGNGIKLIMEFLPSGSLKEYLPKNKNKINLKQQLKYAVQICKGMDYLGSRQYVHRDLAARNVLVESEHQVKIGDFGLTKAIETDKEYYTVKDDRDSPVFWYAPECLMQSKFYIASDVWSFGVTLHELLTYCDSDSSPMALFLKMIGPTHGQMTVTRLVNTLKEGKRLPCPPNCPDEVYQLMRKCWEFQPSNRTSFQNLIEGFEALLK
Series [9] is described as follows: Metabolic stability in mouse liver microsomes assessed as compound remaining after 10 mins. Format: ADME, microsome. The conditions noted are these: read-out: Stability.
Series [10] deals with Mus musculus. The series is described as follows: Antiarthritic activity in collagen-induced arthritis mouse model assessed as reduction in inflammation at 20 mg/kg bid measure up to 41 days. The format is functional, organism-based.
Series [11] has as its system Mus musculus. The experiment in a line: Antiarthritic activity in collagen-induced mouse model assessed as […] at 20 mg/kg bid up to 41 days. The format is functional, organism-based.
The nature of series [12]: Clearance of compound in rat. The format is ADME. The note with it: in vivo.
In series [13] the test system is Serum. The experiment in a line: Protein binding in human serum. The format is ADME, cell-free.
Series [14] in a line: Oral bioavailability in rat. Format: ADME, organism-based. The conditions noted are these: in vivo.
The species entered for series [15] is Rattus norvegicus. The series is described as follows: Clearance of compound in rat relative to hepatic blood flow. Format: ADME. The note with it: in vivo.
Series [16] is described as follows: Cmax in mouse at 10 mg/kg, po after 8 hrs. Format: ADME, organism-based. On the set-up: dose 10 mg/kg, route oral. The note with it: in vivo.
A short description of series [17]: Cmin in mouse at 10 mg/kg, po after 8 hrs. The format is ADME, organism-based. The conditions noted are these: in vivo, read-out: Cmin.
Series [18] has as its target Voltage-gated inwardly rectifying potassium channel KCNH2 (Homo sapiens, UniProt Q12809). The series is described as follows: Inhibition of human ERG by flux-based assay.
A short description of series [19]: Selectivity ratio of IC50 for JAK2 dependent EPO-induced STAT5A phosphorylation in human TF1 cells to IC50 for JAK1/JAK3 dependent IL2-induced STAT3 phosphorylation in human PBMC derived T-cells.

Structures are written as SMILES. Active and inactive are the calls of the source. The rule behind the calls is not given here. Where only a bound is given, the exact number is not on record here.

Here are results for nine molecules from ChEMBL document CHEMBL4052645, “Discovery of potent and efficacious pyrrolopyridazines as dual JAK1/3 inhibitors” (Bioorg Med Chem Lett, 2017).

Sequence of Voltage-gated inwardly rectifying potassium channel KCNH2 (Q12809 whole entry): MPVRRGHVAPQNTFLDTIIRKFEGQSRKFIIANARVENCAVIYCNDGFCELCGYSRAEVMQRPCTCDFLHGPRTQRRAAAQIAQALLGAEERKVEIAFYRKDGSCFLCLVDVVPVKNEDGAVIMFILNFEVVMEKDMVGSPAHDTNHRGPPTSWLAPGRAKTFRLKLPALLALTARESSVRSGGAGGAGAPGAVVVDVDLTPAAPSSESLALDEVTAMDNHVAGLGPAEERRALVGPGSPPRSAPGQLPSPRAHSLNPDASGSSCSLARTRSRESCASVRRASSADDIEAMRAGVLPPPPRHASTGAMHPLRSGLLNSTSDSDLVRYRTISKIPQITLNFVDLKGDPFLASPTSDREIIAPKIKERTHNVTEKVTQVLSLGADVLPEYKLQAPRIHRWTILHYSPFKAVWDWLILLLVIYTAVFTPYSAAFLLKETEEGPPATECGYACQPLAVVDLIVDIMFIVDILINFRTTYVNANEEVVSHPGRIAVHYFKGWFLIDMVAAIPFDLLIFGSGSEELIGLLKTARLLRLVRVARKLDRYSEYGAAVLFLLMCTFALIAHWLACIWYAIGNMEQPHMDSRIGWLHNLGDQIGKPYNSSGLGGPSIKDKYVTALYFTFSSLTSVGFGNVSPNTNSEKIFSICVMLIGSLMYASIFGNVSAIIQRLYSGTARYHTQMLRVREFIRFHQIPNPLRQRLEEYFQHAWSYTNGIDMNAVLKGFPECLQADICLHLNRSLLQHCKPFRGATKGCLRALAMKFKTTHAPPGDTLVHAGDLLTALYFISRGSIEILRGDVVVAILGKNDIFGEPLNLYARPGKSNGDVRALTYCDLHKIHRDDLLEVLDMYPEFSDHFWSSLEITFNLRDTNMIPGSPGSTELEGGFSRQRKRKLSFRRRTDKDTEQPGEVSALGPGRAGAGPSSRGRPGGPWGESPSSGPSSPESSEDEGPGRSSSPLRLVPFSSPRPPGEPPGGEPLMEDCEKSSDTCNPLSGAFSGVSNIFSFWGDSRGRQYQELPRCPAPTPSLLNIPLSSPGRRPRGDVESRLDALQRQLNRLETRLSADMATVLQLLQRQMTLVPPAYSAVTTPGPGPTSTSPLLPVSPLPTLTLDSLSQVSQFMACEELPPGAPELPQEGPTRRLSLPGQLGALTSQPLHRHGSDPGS
Sequence of Tyrosine-protein kinase JAK1 (P23458 whole entry): as the sequence (P23458 whole entry, one chain of several) above
Sequence of Tyrosine-protein kinase JAK2 (O60674 whole entry): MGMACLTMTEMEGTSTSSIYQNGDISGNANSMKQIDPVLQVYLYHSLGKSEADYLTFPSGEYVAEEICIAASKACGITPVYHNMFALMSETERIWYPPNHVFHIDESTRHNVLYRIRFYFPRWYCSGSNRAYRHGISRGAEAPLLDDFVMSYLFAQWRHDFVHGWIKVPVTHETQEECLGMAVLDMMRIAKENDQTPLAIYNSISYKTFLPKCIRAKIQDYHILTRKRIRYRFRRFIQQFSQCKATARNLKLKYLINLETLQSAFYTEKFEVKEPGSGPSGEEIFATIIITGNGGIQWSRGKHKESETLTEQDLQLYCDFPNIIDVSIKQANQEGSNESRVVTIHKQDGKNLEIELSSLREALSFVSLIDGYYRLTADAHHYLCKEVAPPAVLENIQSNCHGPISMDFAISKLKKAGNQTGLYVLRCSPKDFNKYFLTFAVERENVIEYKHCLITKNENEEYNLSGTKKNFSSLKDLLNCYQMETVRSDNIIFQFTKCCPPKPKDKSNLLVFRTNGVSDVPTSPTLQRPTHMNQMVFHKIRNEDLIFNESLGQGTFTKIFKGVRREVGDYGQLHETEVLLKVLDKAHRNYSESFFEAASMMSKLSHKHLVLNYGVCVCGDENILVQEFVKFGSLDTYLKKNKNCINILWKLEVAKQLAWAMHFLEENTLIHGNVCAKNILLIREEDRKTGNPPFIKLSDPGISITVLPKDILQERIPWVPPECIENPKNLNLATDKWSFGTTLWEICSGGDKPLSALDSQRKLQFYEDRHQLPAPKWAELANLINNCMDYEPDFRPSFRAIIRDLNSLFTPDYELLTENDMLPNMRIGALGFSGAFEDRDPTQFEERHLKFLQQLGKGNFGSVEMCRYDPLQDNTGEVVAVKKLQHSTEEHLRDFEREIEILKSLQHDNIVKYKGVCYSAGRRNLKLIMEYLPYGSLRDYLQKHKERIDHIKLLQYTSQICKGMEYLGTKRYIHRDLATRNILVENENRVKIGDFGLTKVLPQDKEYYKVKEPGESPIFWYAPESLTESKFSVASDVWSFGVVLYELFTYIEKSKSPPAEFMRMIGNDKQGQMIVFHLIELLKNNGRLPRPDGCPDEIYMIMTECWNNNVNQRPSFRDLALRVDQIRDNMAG
Sequence of Non-receptor tyrosine-protein kinase TYK2 (P29597 whole entry): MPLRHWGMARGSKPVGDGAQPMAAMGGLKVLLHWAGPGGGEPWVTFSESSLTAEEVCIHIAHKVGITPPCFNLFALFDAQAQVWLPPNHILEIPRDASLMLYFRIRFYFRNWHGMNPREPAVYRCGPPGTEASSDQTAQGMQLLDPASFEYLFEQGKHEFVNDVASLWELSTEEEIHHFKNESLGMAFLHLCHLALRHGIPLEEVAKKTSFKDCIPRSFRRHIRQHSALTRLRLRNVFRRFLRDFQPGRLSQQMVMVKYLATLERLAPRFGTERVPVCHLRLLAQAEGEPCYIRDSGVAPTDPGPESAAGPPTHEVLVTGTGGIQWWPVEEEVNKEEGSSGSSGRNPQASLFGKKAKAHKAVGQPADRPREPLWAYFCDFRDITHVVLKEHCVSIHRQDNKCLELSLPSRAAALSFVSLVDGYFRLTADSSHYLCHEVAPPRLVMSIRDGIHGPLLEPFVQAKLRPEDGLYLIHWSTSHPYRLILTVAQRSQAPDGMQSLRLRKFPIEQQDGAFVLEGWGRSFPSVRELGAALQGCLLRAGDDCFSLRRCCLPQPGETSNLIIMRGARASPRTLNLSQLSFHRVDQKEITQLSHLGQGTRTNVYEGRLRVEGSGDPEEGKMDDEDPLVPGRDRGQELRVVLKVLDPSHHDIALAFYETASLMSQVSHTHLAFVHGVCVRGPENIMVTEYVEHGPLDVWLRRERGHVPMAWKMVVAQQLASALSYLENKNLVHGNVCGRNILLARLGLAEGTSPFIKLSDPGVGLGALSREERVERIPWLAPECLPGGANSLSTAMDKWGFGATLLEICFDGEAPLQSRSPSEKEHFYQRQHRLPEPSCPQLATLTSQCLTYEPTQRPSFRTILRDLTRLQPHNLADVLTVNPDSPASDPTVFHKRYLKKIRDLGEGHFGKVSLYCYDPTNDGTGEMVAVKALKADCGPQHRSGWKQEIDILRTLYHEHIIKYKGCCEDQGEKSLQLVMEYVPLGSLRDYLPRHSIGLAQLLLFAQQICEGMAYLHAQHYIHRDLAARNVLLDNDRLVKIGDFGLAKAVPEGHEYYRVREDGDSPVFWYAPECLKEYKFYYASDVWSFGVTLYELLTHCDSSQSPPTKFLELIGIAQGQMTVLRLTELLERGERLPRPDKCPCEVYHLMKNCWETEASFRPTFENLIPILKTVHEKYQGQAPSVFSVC

Turning to `CC1(C)[C@H](Nc2c(C(N)=O)cnn3cc(-c4ccncc4)cc23)CC[C@]1(C)N`, the IC50 in [1] is 4.9 nM; in [3], 44 nM; in [4], 80 nM; in series [6] it was 6.7 nM; in series [8], 56 nM. The Papp A→B in series [2] was less than 1.5 ×10⁻⁶ cm/s. Also, the Cmax in series [5] was less than 250 nM. Also, the fraction unbound in series [7] is 0.31. Moreover, the remaining at 10 min in series [9] was found to be 75%.
With `C[C@@H]1CCN(C(=O)CC#N)C[C@@H]1N(C)c1ncnc2[nH]ccc12`, the outcome in series [10] and in series [11] was Active.
`CC1(C)[C@H](Nc2c(C(N)=O)cnn3cccc23)CC[C@]1(C)N` returned a clearance in [12] of 145 mL/min/kg. This molecule also registered a PB in [13] of 97%. This molecule also displayed a bioavailability in [14] of 24%. The same molecule returned a CL in [15] greater than 100%.
Regarding `CC1(C)[C@H](Nc2c(C(N)=O)cnn3cc(-c4cc[nH]n4)cc23)CC[C@]1(C)N`, the IC50 in series [1] stood at 1.7 nM; in [3] it was 14 nM; in series [4] it was 21 nM; in [6], 1.6 nM; in series [8] it was 81 nM. In addition, the Papp A→B in [2] worked out at 6.5 ×10⁻⁶ cm/s. For the same molecule, in series [5], the highest concentration (Cmax) was less than 250 nM. For the same molecule, in series [7], the fraction unbound is 0.51. Besides, in [9], the remaining at 10 min amounted to 83%.
In the case of `CC1(C)[C@H](Nc2c(C(N)=O)cnn3cc(-c4ccc(F)nc4)cc23)CC[C@]1(C)N`, the IC50 in [1] came to 2.2 nM; in [3] it was 27 nM; in series [4], 19 nM; in series [6], 0.4 nM; in series [18], 35000 nM; in series [8] it was 100 nM. Besides, the Cmax in series [16] amounted to 300 nM. Further, the Papp A→B in series [2] is less than 1.5 ×10⁻⁶ cm/s. Further, the concentration at 8 h in [17] is 100 nM. In addition, in series [9], the remaining at 10 min came to 88%. For the same molecule, the “Ratio IC50” value in series [19] is listed as 13.
Turning to `Cc1ccc(-c2cc3c(N[C@@H]4CC[C@](C)(N)C4(C)C)c(C(N)=O)cnn3c2)cn1`, the IC50 in series [1] was 2 nM; in series [3], 29 nM; in [4] it was 22 nM; in series [6] it was 0.9 nM; in series [18], 8000 nM; in series [8], 84 nM. Besides, the “Ratio IC50” value in [19] is 80.
As to `COc1ccccc1-c1cc2c(N[C@@H]3CC[C@](C)(N)C3(C)C)c(C(N)=O)cnn2c1`, the IC50 came to 0.5 nM in series [1]; 21 nM in [3]; 20 nM in series [4]; 1.3 nM in series [6]; 7500 nM in series [18]; 680 nM in series [8]. In addition, in series [19], the “Ratio IC50” value amounted to 562.
With `CC(C)Oc1ccc(-c2cc3c(N[C@@H]4CC[C@](C)(N)C4(C)C)c(C(N)=O)cnn3c2)cn1`, the IC50 in [1] came to 1.2 nM; in series [3], 30 nM; in series [4], 20 nM; in [6], 0.5 nM; in series [18] it was 5300 nM; in series [8], 400 nM. Also, in series [19], the “Ratio IC50” value turned out to be 2.
Regarding `CC1(C)[C@H](Nc2c(C(N)=O)cnn3cc(-c4ccncc4F)cc23)CC[C@]1(C)N`, the IC50 in series [1] is 3.6 nM; in series [3], 46 nM; in series [4] it was 70 nM; in [6], 4.6 nM; in [18], greater than 80000 nM; in series [8], 120 nM. Moreover, the Papp A→B in [2] worked out at 2.3 ×10⁻⁶ cm/s. In [5], this molecule returned a Cmax of less than 250 nM. In addition, the fraction unbound in series [7] is 0.22. Moreover, in [9], the remaining at 10 min stood at 68%. Further, in series [19], the “Ratio IC50” value was found to be 150.
